One may read the IC50 as the concentration that gives 50% inhibition.

The values below come from patent US20200216416A1, “QUINOLINE COMPOUNDS AS INHIBITORS OF TAM AND MET KINASES” (Array BioPharma Inc., priority 2019, published 2020).

For assay [1], the target named is T1, human MET kinase del Ex14 (Homo sapiens, UniProt P08581, DEL963-1009).
T1 construct: GST-tagged recombinant human MET kinase domain; purchased Signal Chem
In words: c-Met Enzyme Assay, del Ex14 mutant. The class given is binding. As to conditions: averaged IC50; del Ex14 5 nM; 60-minute incubation at 22° C.; read-out: Del14 IC50. As to the method: The affinity of compound binding to wild type and mutant human MET kinases was measured using Invitrogen's LanthaScreen™ Eu Kinase Binding technology. Briefly, GST-tagged recombinant human MET kinase domain from Signal Chem (see Table 8 below for concentration in assay) was incubated with 50 nM Alexa-Fluor® Tracer 236 (Invitrogen Cat No. PR9078A) and 2 nM Europium-anti-GST (Invitrogen Cat. No. A15116) along with test compound in a buffer consisting of 25 mM HEPES, pH 7.4, 10 mM MgCl2, 0.01% Triton X-100, 1mM DTT, and 2% DMSO. Compounds were typically prepared in a three-fold serial dilution in DMSO and added to the assay to give the appropriate final concentration. After a 60-minute incubation at 22° C., the reaction was measured using a PerkinElmer EnVision multimode plate reader via TR-FRET dual wavelength detection, and the percent of control (POC) calculated using a ratiometric emission factor. […] The POC values were fit to a 4 parameter logistic curve and the IC50 value is point where the curve crosses 50 POC.

In assay [2] the target is T2, GST-tagged recombinant human TYRO3 kinase domain (Homo sapiens, UniProt Q06418).
T2 construct: GST-tagged recombinant human TYRO3 kinase domain; purchased Carna PR7480A
T2 sequence (Q06418 518-790 limits assumed): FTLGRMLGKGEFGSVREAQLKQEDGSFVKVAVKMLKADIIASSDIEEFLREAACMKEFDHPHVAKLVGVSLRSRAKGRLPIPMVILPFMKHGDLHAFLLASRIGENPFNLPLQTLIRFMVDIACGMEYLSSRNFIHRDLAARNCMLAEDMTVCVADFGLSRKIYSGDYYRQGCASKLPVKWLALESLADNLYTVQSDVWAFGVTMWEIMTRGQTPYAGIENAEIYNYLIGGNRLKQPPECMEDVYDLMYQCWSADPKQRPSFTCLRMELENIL
In words: TYRO3 Enzyme Assay (LanthaScreen Eu Kinase Binding). Conditions: averaged IC50; TYRO3 5 nM; 60-minute incubation at 22° C.; TR-FRET. As to the method:
Compounds disclosed herein were screened for their ability to inhibit TYRO3 kinase using Invitrogen's LanthaScreenTM Eu Kinase Binding technology. GST-tagged recombinant human TYRO3 kinase domain from Carna (5 nM; Cat. No. P[…]) was incubated with 20 nM Alexa-Fluor® Tracer 236 (P[…]) and 2 nM Europium-anti-GST (Cat. No. A15116) along with test compound in a buffer consisting of 25 mM HEPES, pH 7.4, 10 mM MgCl2, 0.01% Triton X-100, and 2% DMSO. Compounds are typically prepared in a threefold serial dilution in DMSO and added to the assay to give the appropriate final concentration. After a 60-minute incubation at 22° C., the reaction was measured using a PerkinElmer EnVision multimode plate reader via TR-FRET dual wavelength detection, and the percent of control (POC) calculated using a ratiometric emission factor. […] The POC values were fit to a 4 parameter logistic curve and the IC50 value is point where the curve crosses 50 POC.

T1 sequence (P08581 with tags, fused parts or gaps DEL963-1009 limits assumed): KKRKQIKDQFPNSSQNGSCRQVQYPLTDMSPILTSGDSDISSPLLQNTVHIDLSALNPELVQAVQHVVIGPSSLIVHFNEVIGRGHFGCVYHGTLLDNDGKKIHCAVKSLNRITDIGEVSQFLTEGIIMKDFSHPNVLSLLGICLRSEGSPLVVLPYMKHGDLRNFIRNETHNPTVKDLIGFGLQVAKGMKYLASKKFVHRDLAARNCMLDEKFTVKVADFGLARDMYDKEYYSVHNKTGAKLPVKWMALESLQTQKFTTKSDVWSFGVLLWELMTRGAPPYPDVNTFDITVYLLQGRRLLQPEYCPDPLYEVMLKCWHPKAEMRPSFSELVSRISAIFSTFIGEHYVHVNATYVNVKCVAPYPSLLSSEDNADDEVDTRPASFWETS

In the case of `COc1cc2c(Oc3ccc(NC(=O)c4cn(C(C)C)cc(-c5ccc(F)cc5)c4=O)nc3)ccnc2cc1OCCCN1CCOCC1` [Example 56, 5-(4-fluorophenyl)-1-isopropyl-N-(5-((6-methoxy-7-(3-morpholinopropoxy)quinolin-4-yl)oxy)pyridin-2-yl)-4-oxo-1,4-dihydropyridine-3-carboxamide], the half-inhibitory concentration (IC50) in assay [1] was 4.5 nM; in assay [2] it was 10 nM.
On the same counts, the results for `COc1cc2nccc(Oc3ccc(NC(=O)c4cn(CCN(C)C)cc(-c5ccc(F)cc5)c4=O)nc3)c2cc1OC` [Example 46] are 2.8 nM and 5 nM.
Regarding `COc1cc2nccc(Oc3ccc(NC(=O)c4cn(CC(=O)N(C)C)cc(-c5ccc(F)cc5)c4=O)nc3)c2cc1OC` [Example 23, N-(5-((6,7-dimethoxyquinolin-4yl)oxy)pyridin-2-yl)-1-(2-(dimethylamino)-2-oxoethyl)-5-(4-fluorophenyl)-4-oxo-1,4-dihydropyridine-3-carboxamide], the IC50 in assay [1] is 2.9 nM; in assay [2] it was 14 nM.
With `COc1cc2nccc(Oc3ccc(NC(=O)c4cn(C(C)C)c(C)c(-c5ccc(F)c(F)c5)c4=O)nc3)c2cc1OC` [Example 28, 5-(3,4-difluorophenyl)-N-(5-((6,7-dimethoxyquinolin-4yl)oxy)pyridin-2-yl)-1-isopropyl-6-methyl-4-oxo-1,4-dihydropyridine-3-carboxamide], the IC50 in assay [1] was 1.9 nM; in assay [2], 7 nM.
Regarding `COc1cc2nccc(Oc3ccc(NC(=O)c4cn(CCC(C)C)cc(-c5ccc(F)cc5F)c4=O)nc3)c2cc1OC` [Example 36, 5-(2,4-difluorophenyl)-N-(5-((6,7-dimethoxyquinolin-4yl)oxy)pyridin-2-yl)-1-isopentyl-4-oxo-1,4-dihydropyridine-3-carboxamide], the results for the IC50 in assay [1] and in assay [2] were 2.4 nM and 14 nM, respectively.
In the case of `COc1ccc(-c2cn(C(C)C)cc(C(=O)Nc3ccc(Oc4ccnc5cc(OC)c(OC)cc45)cn3)c2=O)cc1` [Example 30, N-(5-((6,7-dimethoxyquinolin-4yl)oxy)pyridin-2-yl)-1-isopropyl-5-(4-methoxyphenyl)-4-oxo-1,4-dihydropyridine-3-carboxamide], the IC50 in assay [1] came to 50.3 nM; in assay [2], 20 nM.
In the same order, the values of `COc1ccc2nccc(Oc3ccc(NC(=O)c4cn(C)cc(-c5ccc(F)cc5)c4=O)nc3)c2c1` [Example 41, 5-(4-fluorophenyl)-N-(5-((6-methoxyquinolin-4yl)oxy)pyridin-2-yl)-1-methyl-4-oxo-1,4-dihydropyridine-3-carboxamide] are 108 nM and 141 nM.
In the same order, the values of `COc1ccc2nccc(Oc3ccc(NC(=O)c4cn(C(C)C)c(C)c(-c5ccc(F)cc5)c4=O)nc3)c2c1` [Example 33, 5-(4-fluorophenyl)-1-isopropyl-N-(5-((6-methoxyquinolin-4-yl)oxy)pyridin-2-yl)-6-methyl-4-oxo-1,4-dihydropyridine-3-carboxamide] are 4.9 nM and 10 nM.
As to `COc1cc2nccc(Oc3ccc(NC(=O)c4cn(CCN(C)C)cc(-c5ccc(F)c(F)c5)c4=O)nc3)c2cc1OC` [Example 43, 5-(3,4-difluorophenyl)-N-(5-((6,7-dimethoxyquinolin-4-yl)oxy)pyridin-2-yl)-1-], the IC50 was 2.5 nM in assay [1] and 11 nM in assay [2].
On the same counts, the results for `COc1ccc2nccc(Oc3ccc(NC(=O)c4cn(CCN(C)C)cc(-c5ccc(F)cc5)c4=O)nc3)c2c1` [Example 47] are 14.3 nM and 56 nM.
Take `COc1cc2nccc(Oc3ccc(NC(=O)c4cn(C(C)C)c(C)c(-c5ccc(F)cc5)c4=O)nc3)c2cc1OC` [Example 27, N-(5-((6,7-dimethoxyquinolin-4yl)oxy)pyridin-2-yl)-5-(4-fluorophenyl)-1-isopropyl-6-methyl-4-oxo-1,4-dihydropyridine-3-carboxamide]: the figures for the IC50 in assay [1] and in assay [2] were 1.1 nM and 3 nM, respectively.
On the same counts, the results for `COc1cc2nccc(Oc3ccc(NC(=O)c4cn(CC(=O)N(C)C)cc(-c5ccc(F)c(F)c5)c4=O)nc3)c2cc1OC` [Example 24, 5-(3,4-difluorophenyl)-N-(5-((6,7-dimethoxyquinolin-4-yl)oxy)pyridin-2-yl)-1-(2-(dimethylamino)-2-oxoethyl)-4-oxo-1,4-dihydropyridine-3-carboxamide] are 10.5 nM and 54 nM.
Regarding `COc1cc2nccc(Oc3cnc(NC(=O)c4cn(C(C)C)c(C)c(-c5ccc(F)cc5)c4=O)nc3)c2cc1OC` [Example 55, N-(5-((6,7-dimethoxyquinolin-4-yl)oxy)pyrimidin-2-yl)-5-(4-fluorophenyl)-1-isopropyl-6-methyl-4-oxo-1,4-dihydropyridine-3-carboxamide], the IC50 was found to be 3.1 nM in assay [1] and 8 nM in assay [2].
Turning to `CCc1c(-c2ccc(F)cc2)c(=O)c(C(=O)Nc2ccc(Oc3ccnc4cc(OC)c(OC)cc34)cn2)cn1C(C)C` [Example 29, N-(5-((6,7-dimethoxyquinolin-4yl)oxy)pyridin-2-yl)-6-ethyl-5-(4-fluorophenyl)-1-isopropyl-4-oxo-1,4-dihydropyridine-3-carboxamide], the IC50 in assay [1] amounted to 2.5 nM; in assay [2], 6 nM.
Take `COc1cc2nccc(Oc3ccc(NC(=O)c4cn(CC5CCOCC5)cc(-c5ccc(F)cc5)c4=O)nc3)c2cc1OC` [Example 8, N-(5-((6,7-dimethoxyquinolin-4-yl)oxy)pyridin-2-yl)-5-(4-fluorophenyl)-4-oxo-1-((tetrahydro-2H-pyran-4-yl)methyl)-1,4-dihydropyridine-3-carboxamide]: the IC50 turned out to be 3.9 nM in assay [1] and 15 nM in assay [2].
On the same counts, the results for `COc1cc(-c2cn(C(C)C)cc(C(=O)Nc3ccc(Oc4ccnc5cc(OC)c(OC)cc45)cn3)c2=O)ccc1F` [Example 20, N-(5-((6,7-dimethoxyquinolin-4yl)oxy)pyridin-2-yl)-5-(4-fluoro-3-methoxyphenyl)-1-isopropyl-4-oxo-1,4-dihydropyridine-3-carboxamide] are 3.8 nM and 6 nM.
On the same counts, the results for `COc1cc2nccc(Oc3ccc(NC(=O)c4cn(C5CCOCC5)cc(-c5ccc(F)cc5)c4=O)nc3)c2cc1OC` [Example 12, N-(5((6,7-dimethoxyquinolin-4-yl)oxy)pyridin-2-yl)-5-(4-fluorophenyl)-4-oxo-1-(tetrahydro-2H-pyran-4-yl)-1,4-dihydropyridine-3-carboxamide] are 5.6 nM and 23 nM.
Consider `COc1cc2nccc(Oc3ccc(NC(=O)c4cn(C(C)C)cc(-c5ccc(F)cc5)c4=O)nc3)c2cc1OC` [Example 1], for which the IC50 in assay [1] was found to be 2.6 nM; in assay [2] it was 5 nM.
Consider `COc1cc2nccc(Oc3ccc(NC(=O)c4cn(C)c(C(C)C)c(-c5ccc(F)cc5)c4=O)nc3)c2cc1OC` [Example 45, N-(5-((6,7-dimethoxyquinolin-4-yl)oxy)pyridin-2-yl)-5-(4-fluorophenyl)-6-isopropyl-1-methyl-4-oxo-1,4-dihydropyridine-3-carboxamide], for which the IC50 in assay [1] stood at 5.7 nM; in assay [2], 91 nM.
On the same counts, the results for `COc1cc2ncc(C#N)c(Oc3ccc(NC(=O)c4cn(C(C)C)cc(-c5ccc(F)cc5)c4=O)nc3)c2cc1OC` [Example 57, N-(5-((3-cyano-6,7-dimethoxyquinolin-4-yl)oxy)pyridin-2-yl)-5-(4-fluorophenyl)-1-isopropyl-4-oxo-1,4-dihydropyridine-3-carboxamide] are 305 nM and 255 nM.
